Patent US12208080B2, “Compositions and methods for modulation of extracellular vesicle release and treatment of neurological disorders” (GEORGE MASON RESEARCH FOUNDATION, INC., priority 2018, dated 2025)

Experiments:
[1] = tested on: HIV-1 infected monocytes (U1); assay: ZetaView nanoparticle tracking analysis of EVs released from HIV-1 infected U1 monocytes; format: cell-based; settings: 5 days; for EV diameter (mean, median, peak): 1, 5, 10 μM or μg/mL, FIG. 8B-D; for release of EVs (EV concentration) / size of the EV (mean size): 1, 5, 20, 50 μM; for release of EVs (EV concentration): FIG. 2A; for size of the EV (mean size): FIG. 2B
Protocol: HIV-1 infected monocytes (U1) were treated with cannabidiol (“CBD”) (1, 5, 20, and 50 μM) or with tetrahydrocannabinol (“THC”) (1, 5, 20, and 50 μM) for 5 days. The supernatants from the treated cells were analyzed by Zeta View Nanoparticle Tracking analysis for changes in concentration. Student's t-test was used to determine significance (***=p<0.001, **=p<0.01, *=p<0.05).
HIV-1 infected monocytes (U1) were treated with cannabidiol (“CBD”) (1, 5, 20, and 50 μM) or with tetrahydrocannabinol (“THC”) (1, 5, 20, and 50 μM) for 5 days. The supernatants from the treated cells were analyzed by Zeta View Nanoparticle Tracking analysis for changes in mean size. Student's t-test was used to determine significance (***=p<0.001, **=p<0.01, *=p<0.05).
FIGS. 8A-8D are graphs showing Cannabis components lower EVs released from HIV-1 infected monocytes. HIV-1 infected U1 monocytic cells (1×10^6) were treated with a titration of CBD (1, 5, and 10 μM) and THC (1, 5, and 10 μg/mL) every day for 5 days. Cells were pelleted and supernatant was used for Zetaview NTA analysis to determine (A) EV concentration, (B) median size, (C) mean size, and (D) peak size. Each bar represents an average of three independent replicates. Student's t-test was used for statistical analysis, where *p-value≤0.05; **p-value≤0.01, ***p-value≤0.001.
HIV-1 infected monocytes (U1) were treated with a titration of CBD (1, 5, 20, and 50 μM) or a titration of THC (1, 5, 20, and 50 μM) for 5 days. Resulting supernatants from the treated cells were analyzed by Zeta View Nanoparticle Tracking analysis for changes in concentration (FIG. 2A) or mean size (FIG. 2B).
NTA was performed with the ZetaView Z-NTA (Particle Metrix) and its software (ZetaView 8.04.02). The machine was calibrated according to manufacturer's protocol. Following the measurement and removal of any outliers from the measured 11 positions, the mean size (diameter; nm) and the concentration of the sample (EV number) were analyzed by the associated ZetaView software. Measurement data from the ZetaView were used to calculate averages and standard deviations from technical triplicates using Microsoft Excel 2016.
Supernatants were harvested and analyzed using ZetaView NTA.
To verify that the observed decrease in EVs was not the result of modifications in packaging of various cargos into larger EVs, the mean diameter size (FIG. 8B), median diameter size (FIG. 8C), and peak diameter size (FIG. 8D) were also analyzed.

[2] = tested on: HIV-1 infected monocytes (U1); assay: Western blot/densitometry of EV-associated proteins (NT80/82-enriched supernatant) from U1 cells; format: cell-based; settings: for CD81 (EV marker) in EVs / EV-associated Nef / EV-associated gp120: 1, 5, 20, 50 μM, FIG. 2C; for EV CD81 level / EV-associated Nef (30 kDa) / EV-associated myristoylated Nef dimer (70 kDa): CBD 1, 5, 10 μM, THC 1, 5, 10 μg/mL, FIG. 9A; for increase in EV-associated gp160 (densitometry): maximum, CBD lane 4 (10 μM), THC lane 7 (10 μg/mL)
cdk9/Cyclin Ti = biological target: T1, cdk9/Cyclin Ti (Homo sapiens, UniProt P50750); assay: Kinase assay: cdk9 immunoprecipitate, phosphorylation of histone H1; format: biochemical; settings: for phosphorylation of Histone H1: U1, CBD 1 μM, THC 1 μg/mL every day for 5 days, anti-cdk9 IP, FIG. 17 legend
T1 construct: Lysates were immunoprecipitated with 10 μg of cdk9 or IgG antibodies overnight at 4° C; endogenous in cells; host or cells: U1 cells treated with CBD or THC for 5 days, then lysed and immunoprecipitated with anti-cdk9
T1 sequence (P50750 whole entry): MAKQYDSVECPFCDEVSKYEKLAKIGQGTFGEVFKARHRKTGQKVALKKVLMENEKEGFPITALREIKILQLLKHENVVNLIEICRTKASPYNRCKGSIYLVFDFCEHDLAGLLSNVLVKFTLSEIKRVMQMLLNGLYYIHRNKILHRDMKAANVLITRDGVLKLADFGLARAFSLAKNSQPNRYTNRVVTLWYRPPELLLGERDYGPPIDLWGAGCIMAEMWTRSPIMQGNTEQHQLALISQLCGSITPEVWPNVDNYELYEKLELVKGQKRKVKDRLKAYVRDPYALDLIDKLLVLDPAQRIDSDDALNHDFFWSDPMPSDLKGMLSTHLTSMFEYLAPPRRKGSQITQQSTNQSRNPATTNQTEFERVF
T1 sequence (O60563 whole entry partner): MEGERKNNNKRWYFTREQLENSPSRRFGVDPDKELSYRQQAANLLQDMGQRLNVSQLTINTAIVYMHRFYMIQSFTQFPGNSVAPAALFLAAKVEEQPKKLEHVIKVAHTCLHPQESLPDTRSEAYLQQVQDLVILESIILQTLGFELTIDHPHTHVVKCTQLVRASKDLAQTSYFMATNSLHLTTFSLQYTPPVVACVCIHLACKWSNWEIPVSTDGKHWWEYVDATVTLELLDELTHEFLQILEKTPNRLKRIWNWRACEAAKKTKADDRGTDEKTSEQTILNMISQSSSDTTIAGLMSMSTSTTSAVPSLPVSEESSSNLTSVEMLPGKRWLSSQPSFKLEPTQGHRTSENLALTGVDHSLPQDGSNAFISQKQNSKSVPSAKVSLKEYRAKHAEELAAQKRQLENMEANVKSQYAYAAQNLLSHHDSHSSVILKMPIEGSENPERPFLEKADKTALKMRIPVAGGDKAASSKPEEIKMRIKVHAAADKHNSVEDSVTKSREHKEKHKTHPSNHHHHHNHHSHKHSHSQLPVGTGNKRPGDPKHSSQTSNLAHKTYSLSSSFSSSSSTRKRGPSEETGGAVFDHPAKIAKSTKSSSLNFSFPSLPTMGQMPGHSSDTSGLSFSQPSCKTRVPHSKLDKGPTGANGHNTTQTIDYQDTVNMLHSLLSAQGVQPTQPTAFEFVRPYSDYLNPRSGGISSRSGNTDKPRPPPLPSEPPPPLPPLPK
Protocol: U1 cells (5×10^6) were treated with CBD (1 μM) and THC (1 μg/mL) every day for 5 days. Cells were then lysed, centrifuged and the supernatants (˜150 ug) incubated with anti-cdk9 and IgG antibodies as described in the Kinase Assay section (Materials and Methods), ran on a 4-20% gel and dried, followed by imaging for phosphorylated Histone 1 (p-H1). p-H1 Densitometry counts were calculated on the kinase blot and normalized to background gel pieces.
U1 cells (5×10^6) were treated with CBD (1 μM) and THC 1 μg/mL) every day for 5 d. Cells were pelleted by centrifugation at 15,000×g for 5 minutes, washed with 1×PBS, and lysed in 250 μL lysis buffer. Lysates were immunoprecipitated with 10 μg of cdk9 or IgG antibodies overnight at 4° C., followed by a 2 h incubation with A/G beads at 4° C. IP complexes were washed with TNE50+0.1% NP40 buffer and kinase buffer as described in (Guendel et al., 2014, Novel Neuroprotective GSK-3β Inhibitor Restricts Tat-Mediated HIV-1 Replication. Journal of Virology, 88(2), 1189-1208), followed by 1 h incubation period at 37° C. with γ-^32P ATP and purified histone H1. The samples (50%) were loaded and run through SDS-PAGE on a 4-20% Tris-Glycine gel, followed by staining with Coomassie blue, destain with destain buffer (50% methanol and 10% acetic acid), and dried for 2 h. The dried gels were exposed to a PhosphorImager Cassette, followed by analysis via Molecular Dynamic's ImageQuant Software.
U1 monocytes were treated with CBD (10 μM) and Flavo (50 nM) for short periods (0, 2 and 6 hours) due to the fact that HIV-1 transcription activity is a rapid event that can be scored using chromatin immunoprecipitation (ChIP) assay for factor occupancy. Treated samples were lysed and incubated with IgG control and Pol II (serine 2/5) antibodies for ChIP, followed by qPCR analysis for TAR DNA. […] As expected, there was no change in amount of TAR DNA pulled down with PolII with any treatment compared to the untreated control at 0 hours samples (lanes 1-3).

Structure (SMILES) | decrease in EVs compared to untreated control ([1]; 1 μM, FIG. 8A lane 2) [%] | decrease in EVs compared to untreated control ([1]; 5 μM, FIG. 8A lane 3) [%] | decrease in EVs compared to untreated control ([1]; 10 μM, FIG. 8A lane 4) [%] | EV diameter (mean, median, peak) [1] | release of EVs (EV concentration) [1] | size of the EV (mean size) [1] | CD81 (EV marker) in EVs ([2]; U1, 5 days) | EV-associated Nef ([2]; U1, 5 days) | EV-associated gp120 ([2]; U1, 5 days) | reduction in EV-associated gp120 (densitometry) ([2]; U1, CBD 1, 5, 10 μM (lanes 2-4), 5 days) | EV CD81 level ([2]; U1, 5 days) | EV-associated Nef (30 kDa) ([2]; U1, 5 days) | EV-associated myristoylated Nef dimer (70 kDa) ([2]; U1, 5 days) | reduction in EV CD81 expression (densitometry) ([2]; U1, low titer CBD (lane 2, 1 μM), 5 days, FIG. 10A) [%] | decrease in EV-associated Nef (30 kDa), densitometry ([2]; greatest reduction, lane 3 (CBD 5 μM), FIG. 10) | increase in EV-associated gp160 (densitometry) [2] | cdk9/Cyclin Ti activity in vitro (cdk9/Cyclin Ti; FIG. 17) | phosphorylation of Histone H1 (cdk9/Cyclin Ti) | number of EVs released ([1]; 1, 5, 10 μg/mL, FIG. 8A lanes 5-7, less drastic than CBD) | decrease in EV-associated myristoylated Nef dimer (70 kDa), densitometry ([2]; greatest reduction, lane 7 (THC 10 μg/mL), FIG. 10)
C=C(C)[C@@H]1CCC(C)=C[C@H]1c1c(O)cc(CCCCC)cc1O [CBD, 2-[1R-3-methyl-6R-(1-methylethenyl)-2-cyclohexen-1-yl]-5-pentyl-1,3-benzenediol] | 44 | 76 | 79 | little to no change in diameter | significantly reduced the release of EVs | without altering the size of the EV | reduction in CD81 | dose-dependent decrease | dose-dependent decrease | 39-58% | decreased | dose-dependent decrease | dose-dependent decrease | 80 | up to 79% | up to 125% | did not inhibit | lower phosphorylation of Histone H1 |  | 
CCCCCc1cc(O)c2c(c1)OC(C)(C)[C@@H]1CCC(C)=C[C@@H]21 [THC, Δ9-tetrahydrocannabinol] |  |  |  | little to no change in diameter | significantly reduced the release of EVs | without altering the size of the EV | reduction in CD81 | dose-dependent decrease | dose-dependent decrease |  | decrease in CD81 | dose-dependent decrease | dose-dependent decrease |  |  | ≤ 57% |  | lower phosphorylation of Histone H1 | significant reduction in the number of EVs | up to 37%
